Test [1] has as its target Estrogen receptor beta (Homo sapiens, UniProt Q92731). The experiment in a line: Binding affinity to human ERbeta.
For test [2], the target named is T1, Estrogen receptor (Homo sapiens, UniProt P03372).
T1 sequence (P03372 whole entry): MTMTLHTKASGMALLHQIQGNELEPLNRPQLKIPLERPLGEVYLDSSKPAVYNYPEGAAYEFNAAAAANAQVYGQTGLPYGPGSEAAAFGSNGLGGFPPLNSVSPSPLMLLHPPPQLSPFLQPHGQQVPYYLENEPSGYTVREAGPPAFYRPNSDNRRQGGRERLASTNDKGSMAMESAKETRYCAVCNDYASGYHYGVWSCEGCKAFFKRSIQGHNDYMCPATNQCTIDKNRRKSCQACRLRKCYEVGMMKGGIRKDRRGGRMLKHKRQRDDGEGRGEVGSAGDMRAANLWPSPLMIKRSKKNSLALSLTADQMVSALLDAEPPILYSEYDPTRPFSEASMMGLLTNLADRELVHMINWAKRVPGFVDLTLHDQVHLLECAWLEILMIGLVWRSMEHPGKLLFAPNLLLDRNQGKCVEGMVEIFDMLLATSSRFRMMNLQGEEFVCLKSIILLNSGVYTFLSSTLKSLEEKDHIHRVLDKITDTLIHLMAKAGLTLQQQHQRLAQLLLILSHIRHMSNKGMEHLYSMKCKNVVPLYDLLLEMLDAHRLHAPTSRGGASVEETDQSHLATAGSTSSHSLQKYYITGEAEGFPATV
Description: Binding affinity to human ERalpha.

For eight compounds, Ki results are on record in ChEMBL document CHEMBL1148875, “Benzopyrans as selective estrogen receptor beta agonists (SERBAs). Part 2: structure-activity relationship studies on the benzopyran scaffold” (Bioorg Med Chem Lett, 2007).

Estrogen receptor beta, sequence (Q92731 whole entry): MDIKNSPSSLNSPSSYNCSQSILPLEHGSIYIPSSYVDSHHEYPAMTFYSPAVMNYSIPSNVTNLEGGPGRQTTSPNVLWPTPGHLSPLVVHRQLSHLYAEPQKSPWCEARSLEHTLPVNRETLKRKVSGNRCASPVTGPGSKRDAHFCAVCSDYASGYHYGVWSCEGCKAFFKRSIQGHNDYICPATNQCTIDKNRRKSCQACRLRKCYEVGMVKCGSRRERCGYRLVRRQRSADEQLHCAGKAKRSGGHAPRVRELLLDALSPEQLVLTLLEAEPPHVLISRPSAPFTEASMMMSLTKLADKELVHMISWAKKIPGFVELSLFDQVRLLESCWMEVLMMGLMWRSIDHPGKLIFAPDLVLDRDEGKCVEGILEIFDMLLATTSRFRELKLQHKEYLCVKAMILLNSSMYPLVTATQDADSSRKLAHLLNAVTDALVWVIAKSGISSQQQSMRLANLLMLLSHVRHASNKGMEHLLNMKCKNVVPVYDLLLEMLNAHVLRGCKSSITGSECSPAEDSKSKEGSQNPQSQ

On to `Oc1ccc([C@@H]2CCc3cc(O)ccc3O2)cc1`, for which, in test [1], the Ki worked out at 0.0208 µM.
Consider `Oc1ccc([C@H]2Oc3ccc(O)cc3[C@H]3CCCC[C@H]32)cc1`, for which the Ki turned out to be 0.00063 µM in test [1] and 0.00288 µM in test [2].
The matching figures for `Oc1ccc([C@H]2Oc3ccc(O)cc3[C@H]3CCCCC[C@H]32)cc1`: 0.00088 µM and 0.00611 µM.
As to `Oc1cccc([C@H]2Oc3ccc(O)cc3[C@H]3CCC[C@H]32)c1`, affinity in test [2] was put at a Ki of 0.065 µM.
For `Oc1ccc([C@H]2Oc3ccccc3[C@H]3CCC[C@H]32)cc1`, the Ki was found to be 0.0221 µM in test [1] and 0.04 µM in test [2].
Take `Oc1ccc([C@H]2Oc3cccc(O)c3[C@H]3CCC[C@H]32)cc1`: the inhibition constant (Ki) in test [1] was determined as 0.00066 µM; in test [2] it was 0.00035 µM.
For `Oc1ccc([C@H]2Oc3cc(O)ccc3[C@H]3CCC[C@H]32)cc1`, in that order: 0.0189 µM and 0.041 µM.
Regarding `Oc1ccc2c(c1)[C@H]1CCC[C@H]1[C@@H](c1ccccc1)O2`, the Ki in test [2] was determined as 0.267 µM.
